One data set addresses Cannabinoid receptor 2 (Homo sapiens, UniProt P34972). Put plainly: Inhibition of beta-arrestin binding to recombinant cannabinoid CB2 receptor.
Data set [1] is described as follows: Selectivity ratio of Ki for recombinant cannabinoid CB1 receptor to Ki for recombinant cannabinoid CB2 receptor.
Data set [2] can be described thus: AUC in rat at 10 mg/kg. It is filed as ADME, organism-based. Details: dose 10 mg/kg. The note with it: plasma.

pKi: −log10 of the molar value.

Cannabinoid receptor 2, sequence (P34972 whole entry): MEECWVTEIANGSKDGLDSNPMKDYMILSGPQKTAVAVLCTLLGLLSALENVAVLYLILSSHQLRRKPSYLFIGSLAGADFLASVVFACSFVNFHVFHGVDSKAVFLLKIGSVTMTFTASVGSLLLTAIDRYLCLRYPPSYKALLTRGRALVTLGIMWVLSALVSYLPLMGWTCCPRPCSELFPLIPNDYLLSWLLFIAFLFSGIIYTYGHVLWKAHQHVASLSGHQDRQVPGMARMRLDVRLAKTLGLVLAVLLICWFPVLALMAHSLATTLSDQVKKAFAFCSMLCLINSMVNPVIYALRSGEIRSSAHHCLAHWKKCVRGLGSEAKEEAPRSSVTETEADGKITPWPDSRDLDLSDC

As usually defined, the pKi is −log10 of the Ki, conventionally taken in molar units. Take `C[C@@H]1CN(S(=O)(=O)c2cc3ccccc3n2S(=O)(=O)c2ccccc2F)CC[C@@H]1CNS(=O)(=O)C(F)(F)F`: the pKi at Cannabinoid receptor 2 is 8.82. The Ratio Ki in data set [1] was determined as 6670.
In the same order, the values of `O=S(=O)(c1cc2ccccc2n1S(=O)(=O)c1ccccc1F)N1CCC(O)(CNS(=O)(=O)C(F)(F)F)CC1` are 9.70 and 4380.
Turning to `O=S(=O)(c1ccccc1F)c1occc1S(=O)(=O)N1CCC(CNS(=O)(=O)C(F)(F)F)CC1`, the pKi at Cannabinoid receptor 2 is 8.85. Further, the Ratio Ki in data set [1] worked out at 4520.
As to `C[C@@H](NS(=O)(=O)C(F)(F)F)c1ccc(S(=O)(=O)c2ccoc2S(=O)(=O)c2ccccc2F)cc1`, at Cannabinoid receptor 2, the pKi is 8.36. In addition, the Ratio Ki in data set [1] was found to be 2690.
In the same order, the values of `CC1(C)CN(S(=O)(=O)c2cc3ccccc3n2S(=O)(=O)c2ccccc2F)CCC1CNS(=O)(=O)C(F)(F)F` (configuration not stated) are 8.38 and 245.
For `CN(C)c1ncccc1S(=O)(=O)n1c(S(=O)(=O)N2CCC(CNS(=O)(=O)C(F)(F)F)CC2)cc2ccccc21`, the pKi at Cannabinoid receptor 2 was 7.64. Further, the Ratio Ki in data set [1] worked out at 126.
As for `CC1(CNS(=O)(=O)C(F)(F)F)CCN(S(=O)(=O)c2cc3ccccc3n2S(=O)(=O)c2ccccc2F)CC1`, at Cannabinoid receptor 2, the pKi was 9.46. Also, the Ratio Ki in data set [1] was 6720.
Turning to `Cn1c(S(=O)(=O)c2ccccc2F)c(S(=O)(=O)N2CCC(CNS(=O)(=O)C(F)(F)F)CC2)c2ccccc21`, the pKi at Cannabinoid receptor 2 was 7.15. Further, in data set [1], the Ratio Ki is 364.
On the same counts, the results for `CC(NS(=O)(=O)C(F)(F)F)C1CCN(S(=O)(=O)c2cc3ccccc3n2S(=O)(=O)c2ccccc2F)CC1` (configuration not stated) are 9.40 and 2080.
With `O=S(=O)(c1cc2ccccc2n1S(=O)(=O)c1ccccn1)N1CCC(CNS(=O)(=O)C(F)(F)F)CC1`, the pKi on Cannabinoid receptor 2 is 9.05. Moreover, the Ratio Ki in data set [1] is 9180.
On the same counts, the results for `CC(C)(NS(=O)(=O)C(F)(F)F)C1CCN(S(=O)(=O)c2cc3ccccc3n2S(=O)(=O)c2ccccc2F)CC1` are 6.77 and 171.
On to `CC(C)C1(CNS(=O)(=O)C(F)(F)F)CCCN(S(=O)(=O)c2cc3ccccc3n2S(=O)(=O)c2ccccc2F)C1` (configuration not stated), for which the pKi on Cannabinoid receptor 2 is 7.11. Further, the Ratio Ki in data set [1] came to 24.
In the same order, the values of `O=S(=O)(c1cc2ccccc2n1S(=O)(=O)c1ccccc1F)N1CCCC(CCNS(=O)(=O)C(F)(F)F)C1` (configuration not stated) are 6.59 and 3.
As a reminder, the AUC is concentration integrated over time. Higher therefore signals more exposure. On to `O=S(=O)(c1cc2ccccc2n1S(=O)(=O)c1ccccn1)N1CCC2(CC1)C[C@@H]2NS(=O)(=O)C(F)(F)F`, for which the pKi at Cannabinoid receptor 2 is 9.40. The Ratio Ki in data set [1] was found to be 3500. Moreover, the AUC in data set [2] was found to be 4.56 µM·h.
`CC[C@]1(CNS(=O)(=O)C(F)(F)F)CCN(S(=O)(=O)c2cc3ccccc3n2S(=O)(=O)c2ccccc2F)C[C@H]1C`: the pKi at Cannabinoid receptor 2 is 8.51. Moreover, in data set [1], the Ratio Ki was 630.
Turning to `CCCC1(CNS(=O)(=O)C(F)(F)F)CCN(S(=O)(=O)c2cc3ccccc3n2S(=O)(=O)c2ccccn2)CC1`, the pKi on Cannabinoid receptor 2 is 8.80. The Ratio Ki in data set [1] was 26400. Moreover, the AUC in data set [2] was 17.6 µM·h.
With `O=S(=O)(c1cc2ccccc2n1S(=O)(=O)c1ccccc1F)N1CCC(CNS(=O)(=O)C(F)(F)F)CC1`, the pKi at Cannabinoid receptor 2 was 9.42. Besides, the Ratio Ki in data set [1] came out at 9250.
Take `O=S(=O)(c1cc2ccccc2n1S(=O)(=O)c1ccccc1F)N1CCC2(CC(NS(=O)(=O)C(F)(F)F)C2)C1` (configuration not stated): the negative logarithm of the Ki (pKi) on Cannabinoid receptor 2 is 6.34. Moreover, in data set [1], the Ratio Ki stood at 117.
In the same order, the values of `C[C@H]1C[C@H](CNS(=O)(=O)C(F)(F)F)CCN1S(=O)(=O)c1cc2ccccc2n1S(=O)(=O)c1ccccc1F` are 7.80 and 334.
For `O=S(=O)(c1cc2ccccc2n1S(=O)(=O)c1ccccc1F)N1CC(CCNS(=O)(=O)C(F)(F)F)C1`, the pKi on Cannabinoid receptor 2 was 6.60. The Ratio Ki in data set [1] stood at 11.
Turning to `C[C@@H](NS(=O)(=O)C(F)(F)F)c1ccc(S(=O)(=O)n2cccc2S(=O)(=O)c2ccccc2F)cc1`, the pKi on Cannabinoid receptor 2 is 8.08. The Ratio Ki in data set [1] stood at 962.
On the same counts, the results for `C[C@@H]1CN(S(=O)(=O)c2cc3ccccc3n2S(=O)(=O)c2ccccc2F)CC[C@H]1CNS(=O)(=O)C(F)(F)F` are 9.30 and 2260.
On to `O=S(=O)(c1ccccc1F)c1ncccc1S(=O)(=O)N1CCC(CNS(=O)(=O)C(F)(F)F)CC1`, for which the pKi on Cannabinoid receptor 2 was 6.10. Also, the Ratio Ki in data set [1] turned out to be 126.
With `O=S(=O)(c1cc2ccccc2n1S(=O)(=O)c1ccccc1F)N1CCC2(CC1)CN(S(=O)(=O)C(F)(F)F)C2`, the pKi at Cannabinoid receptor 2 was 5.07. For the same compound, the Ratio Ki in data set [1] is 12.
Turning to `COc1ccc2c(c1)cc(S(=O)(=O)N1CCC(CNS(=O)(=O)C(F)(F)F)CC1)n2S(=O)(=O)c1ccccc1F`, the pKi at Cannabinoid receptor 2 is 9.10. Further, the Ratio Ki in data set [1] stood at 5160.
As to `COC1(CNS(=O)(=O)C(F)(F)F)CCN(S(=O)(=O)c2cc3cccnc3n2S(=O)(=O)c2ccccc2F)CC1`, the pKi on Cannabinoid receptor 2 was 8.60. Also, in data set [1], the Ratio Ki turned out to be 3200. In data set [2], this compound showed an AUC of 3.19 µM·h.
On the same counts, the results for `CCC1(CNS(=O)(=O)C(F)(F)F)CCN(S(=O)(=O)c2cc3cc(F)ccc3n2S(=O)(=O)c2ccccc2F)CC1` are 9.40, 2800 and 3.77 µM·h.
On to `C[C@@H](NS(=O)(=O)C(F)(F)F)c1ccc(S(=O)(=O)c2cc3ccccc3n2S(=O)(=O)c2ccccc2F)cc1`, for which the pKi on Cannabinoid receptor 2 is 8.12. The Ratio Ki in data set [1] worked out at 1340.
As to `O=S(=O)(c1cc2ccccc2n1S(=O)(=O)c1ccccc1F)N1CCC2(CC1)C[C@@H]2NS(=O)(=O)C(F)(F)F`, the Ratio Ki in data set [1] is 413.
`O=S(=O)(c1cc2ccccc2n1S(=O)(=O)c1cccnc1)N1CCC(CNS(=O)(=O)C(F)(F)F)CC1`: the pKi at Cannabinoid receptor 2 was 7.39. Further, the Ratio Ki in data set [1] came out at 139.
`O=S(=O)(c1cc2ccccc2n1S(=O)(=O)c1ccccc1F)N1C[C@@H]2[C@@H](CNS(=O)(=O)C(F)(F)F)[C@@H]2C1`: on Cannabinoid receptor 2, the pKi is 8.05. The Ratio Ki in data set [1] was 279.
On to `CCCC1(CNS(=O)(=O)C(F)(F)F)CCN(S(=O)(=O)c2cc3ccccc3n2S(=O)(=O)c2ccccc2F)CC1`, for which the pKi at Cannabinoid receptor 2 is 8.74. For the same compound, the Ratio Ki in data set [1] was determined as 2520.

The record behind these values is ChEMBL document CHEMBL1268834, “Expansion of SAR studies on triaryl bis sulfone cannabinoid CB2 receptor ligands” (Bioorg Med Chem Lett, 2010).
